In patent US6911319B2, “Methods and kits for detecting protein kinases” (Lumitech (UK) Limited, priority 2000, dated 2005):
Blank lines part the entries; values can stand above or below the compound they belong to.

Legend:
Assay type in all cases: biochemical
[1] = biological target: luciferase-luciferin reaction (Photinus pyralis, UniProt P08659); assay: Effect of inhibitor on the bioluminescent ATP detection system; conditions: even at the highest concentration of the inhibitor; 10 μM ATP, 100 μl volumes, 96 well plate
luciferase-luciferin reaction, sequence (P08659 whole entry): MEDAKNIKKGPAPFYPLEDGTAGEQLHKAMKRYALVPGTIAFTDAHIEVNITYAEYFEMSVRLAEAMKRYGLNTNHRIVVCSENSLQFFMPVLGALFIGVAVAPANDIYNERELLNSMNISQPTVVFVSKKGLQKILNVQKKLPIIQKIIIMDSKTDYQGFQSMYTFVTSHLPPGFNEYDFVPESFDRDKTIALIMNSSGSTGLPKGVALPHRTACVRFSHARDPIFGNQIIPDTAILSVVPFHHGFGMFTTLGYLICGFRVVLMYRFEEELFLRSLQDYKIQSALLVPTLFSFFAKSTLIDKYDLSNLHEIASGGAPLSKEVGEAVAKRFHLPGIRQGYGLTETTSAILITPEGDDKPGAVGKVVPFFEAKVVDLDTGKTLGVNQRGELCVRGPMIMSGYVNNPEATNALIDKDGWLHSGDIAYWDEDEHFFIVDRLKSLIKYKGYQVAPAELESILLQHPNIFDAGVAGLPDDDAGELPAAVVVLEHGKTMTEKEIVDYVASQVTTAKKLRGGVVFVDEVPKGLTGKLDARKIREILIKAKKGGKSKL
Procedure: We initially chose to look at a broad spectrum kinase inhibitor staurosporine (Calbiochem). Firstly, we tested the inhibitor (in DMSO) on the ATP detection reagent to ensure that the inhibitor would not affect the luciferase-luciferin reaction.
The results are presented as the means of triplicate wells±SD.
The experiment was performed using 10 μM ATP in 100 μl volumes in a 96 well plate with the addition of 20 μl of ATP detection reagent.

[2] = biological target: T1, JNK2α2 (Homo sapiens, UniProt P45984); assay: Bioluminescent protein kinase assay, JNK2α2 with ATF-2 as substrate
T1 construct: purchased Upstate Discovery
T1 sequence (P45984 whole entry): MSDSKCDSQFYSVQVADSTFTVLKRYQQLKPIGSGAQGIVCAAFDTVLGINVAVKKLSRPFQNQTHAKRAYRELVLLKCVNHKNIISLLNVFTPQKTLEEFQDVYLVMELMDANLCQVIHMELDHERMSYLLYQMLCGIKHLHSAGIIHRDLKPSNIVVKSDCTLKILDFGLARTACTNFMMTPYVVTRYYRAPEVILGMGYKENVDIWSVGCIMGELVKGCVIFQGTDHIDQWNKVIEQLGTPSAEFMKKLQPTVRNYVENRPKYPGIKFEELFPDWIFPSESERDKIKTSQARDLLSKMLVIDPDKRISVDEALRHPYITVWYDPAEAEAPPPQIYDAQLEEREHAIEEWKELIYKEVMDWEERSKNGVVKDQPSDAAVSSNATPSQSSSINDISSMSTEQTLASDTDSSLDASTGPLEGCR
Procedure: The lower concentration had little effect, however 5 μM caused approximately 50% inhibition after 30 minutes at 30° C.
The above assay was performed in 200 μl volumes in plastic tubes in, a 30° C. waterbath. At each time point 20 μl samples were removed from the tubes and added to wells of a 96 well plate, followed by the addition of 20 μl of ATP detection reagent. The final concentration of ATP used was 12.5 μM, with JNK2α2 at 1.25 μM and ATF-2 at 2.55 μM.

[3] = biological target: T2, MAPK-1/ERK-1 (Homo sapiens, UniProt P27361); assay: Bioluminescent protein kinase assay, MAPK-1 with MBP as substrate; conditions: 30° C. for 30 minutes, MBP 2.72 μM
T2 construct: purchased UBI (Upstate Biotechnology)
T2 sequence (P27361 whole entry): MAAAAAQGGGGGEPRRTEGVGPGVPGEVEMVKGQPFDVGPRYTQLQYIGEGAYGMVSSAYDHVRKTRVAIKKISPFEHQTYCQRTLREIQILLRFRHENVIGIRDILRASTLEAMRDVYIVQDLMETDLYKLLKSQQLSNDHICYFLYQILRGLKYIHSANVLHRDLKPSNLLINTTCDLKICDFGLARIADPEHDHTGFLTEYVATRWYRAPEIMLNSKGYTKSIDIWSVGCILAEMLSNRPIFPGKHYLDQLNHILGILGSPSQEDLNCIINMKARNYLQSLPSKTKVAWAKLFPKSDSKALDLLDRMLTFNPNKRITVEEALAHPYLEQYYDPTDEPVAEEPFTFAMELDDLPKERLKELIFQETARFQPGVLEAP
Procedure: We also investigated the effect of genistein (Calbiochem) on MAPK-1 activity with MBP as substrate.
The assay buffer used was the same as for the SAP kinases (see above). The assay was performed in 100 μl volumes in a 96 well microtitre plate at 30° C. for 30 minutes. MBP (Calbiochem) was used at the same concentration as previously described (2.72 μM), with the activated MAPK1/ERK1 (UBI) used at a final concentration of 2.5U per100 μl reaction volume. The inhibitor was added at concentrations of 0, 0.1, 0.25, 0.5 and 1.0 μM, with 10 μl being added per well in 0.1% (v/v) DMSO.
For completeness, control samples with and without DMSO (0+DMSO and 0−DMSO, respectively) were also analysed to confirm that there was no effect of DMSO on the performance of the assay.

[4] = system: raf-1; assay: Bioluminescent protein kinase assay, raf-1 activation of inactive MEK-1; conditions: two different concentrations of PD098059; inactive MEK-1 as substrate

Compound: CN[C@@H]1C[C@H]2O[C@@](C)([C@@H]1OC)n1c3ccccc3c3c4c(c5c6ccccc6n2c5c31)C(=O)NC4 [staurosporine]
effect upon light output [1]: no significant effect
inhibition of JNK2α2 activity ([2]; 5 μM staurosporine, after 30 minutes at 30° C., ATP 12.5 μM, JNK2α2 1.25 μM, ATF-2 2.55 μM): approximately 50%
effect on JNK2α2 activity ([2]; the lower of two staurosporine concentrations, 30° C.): little effect

effect on MAPK-1 activity ([3]; genistein 500 nM): an effect
effect on MAPK-1 activity ([3]; genistein 1 μM): increased inhibitory activity
Compound: O=c1c(-c2ccc(O)cc2)coc2cc(O)cc(O)c12 [genistein]

light output in the presence of the inhibitor (indicating reduced kinase activity) [4]: concentration dependent increase
Compound: COc1cccc(-c2cc(=O)c3ccccc3o2)c1N [PD098059]
